Drawing on patent US6492375B2, “Partially saturated calcium channel blockers” (NeuroMed Technologies, Inc., priority 1998, dated 2002), this text covers IC50 for 9 molecules.

Structures are written as SMILES. Where “and” joins values, the source holds several entries; their conditions need not be identical. Equal values may be shown once.

T1 sequence (Q02294 whole entry): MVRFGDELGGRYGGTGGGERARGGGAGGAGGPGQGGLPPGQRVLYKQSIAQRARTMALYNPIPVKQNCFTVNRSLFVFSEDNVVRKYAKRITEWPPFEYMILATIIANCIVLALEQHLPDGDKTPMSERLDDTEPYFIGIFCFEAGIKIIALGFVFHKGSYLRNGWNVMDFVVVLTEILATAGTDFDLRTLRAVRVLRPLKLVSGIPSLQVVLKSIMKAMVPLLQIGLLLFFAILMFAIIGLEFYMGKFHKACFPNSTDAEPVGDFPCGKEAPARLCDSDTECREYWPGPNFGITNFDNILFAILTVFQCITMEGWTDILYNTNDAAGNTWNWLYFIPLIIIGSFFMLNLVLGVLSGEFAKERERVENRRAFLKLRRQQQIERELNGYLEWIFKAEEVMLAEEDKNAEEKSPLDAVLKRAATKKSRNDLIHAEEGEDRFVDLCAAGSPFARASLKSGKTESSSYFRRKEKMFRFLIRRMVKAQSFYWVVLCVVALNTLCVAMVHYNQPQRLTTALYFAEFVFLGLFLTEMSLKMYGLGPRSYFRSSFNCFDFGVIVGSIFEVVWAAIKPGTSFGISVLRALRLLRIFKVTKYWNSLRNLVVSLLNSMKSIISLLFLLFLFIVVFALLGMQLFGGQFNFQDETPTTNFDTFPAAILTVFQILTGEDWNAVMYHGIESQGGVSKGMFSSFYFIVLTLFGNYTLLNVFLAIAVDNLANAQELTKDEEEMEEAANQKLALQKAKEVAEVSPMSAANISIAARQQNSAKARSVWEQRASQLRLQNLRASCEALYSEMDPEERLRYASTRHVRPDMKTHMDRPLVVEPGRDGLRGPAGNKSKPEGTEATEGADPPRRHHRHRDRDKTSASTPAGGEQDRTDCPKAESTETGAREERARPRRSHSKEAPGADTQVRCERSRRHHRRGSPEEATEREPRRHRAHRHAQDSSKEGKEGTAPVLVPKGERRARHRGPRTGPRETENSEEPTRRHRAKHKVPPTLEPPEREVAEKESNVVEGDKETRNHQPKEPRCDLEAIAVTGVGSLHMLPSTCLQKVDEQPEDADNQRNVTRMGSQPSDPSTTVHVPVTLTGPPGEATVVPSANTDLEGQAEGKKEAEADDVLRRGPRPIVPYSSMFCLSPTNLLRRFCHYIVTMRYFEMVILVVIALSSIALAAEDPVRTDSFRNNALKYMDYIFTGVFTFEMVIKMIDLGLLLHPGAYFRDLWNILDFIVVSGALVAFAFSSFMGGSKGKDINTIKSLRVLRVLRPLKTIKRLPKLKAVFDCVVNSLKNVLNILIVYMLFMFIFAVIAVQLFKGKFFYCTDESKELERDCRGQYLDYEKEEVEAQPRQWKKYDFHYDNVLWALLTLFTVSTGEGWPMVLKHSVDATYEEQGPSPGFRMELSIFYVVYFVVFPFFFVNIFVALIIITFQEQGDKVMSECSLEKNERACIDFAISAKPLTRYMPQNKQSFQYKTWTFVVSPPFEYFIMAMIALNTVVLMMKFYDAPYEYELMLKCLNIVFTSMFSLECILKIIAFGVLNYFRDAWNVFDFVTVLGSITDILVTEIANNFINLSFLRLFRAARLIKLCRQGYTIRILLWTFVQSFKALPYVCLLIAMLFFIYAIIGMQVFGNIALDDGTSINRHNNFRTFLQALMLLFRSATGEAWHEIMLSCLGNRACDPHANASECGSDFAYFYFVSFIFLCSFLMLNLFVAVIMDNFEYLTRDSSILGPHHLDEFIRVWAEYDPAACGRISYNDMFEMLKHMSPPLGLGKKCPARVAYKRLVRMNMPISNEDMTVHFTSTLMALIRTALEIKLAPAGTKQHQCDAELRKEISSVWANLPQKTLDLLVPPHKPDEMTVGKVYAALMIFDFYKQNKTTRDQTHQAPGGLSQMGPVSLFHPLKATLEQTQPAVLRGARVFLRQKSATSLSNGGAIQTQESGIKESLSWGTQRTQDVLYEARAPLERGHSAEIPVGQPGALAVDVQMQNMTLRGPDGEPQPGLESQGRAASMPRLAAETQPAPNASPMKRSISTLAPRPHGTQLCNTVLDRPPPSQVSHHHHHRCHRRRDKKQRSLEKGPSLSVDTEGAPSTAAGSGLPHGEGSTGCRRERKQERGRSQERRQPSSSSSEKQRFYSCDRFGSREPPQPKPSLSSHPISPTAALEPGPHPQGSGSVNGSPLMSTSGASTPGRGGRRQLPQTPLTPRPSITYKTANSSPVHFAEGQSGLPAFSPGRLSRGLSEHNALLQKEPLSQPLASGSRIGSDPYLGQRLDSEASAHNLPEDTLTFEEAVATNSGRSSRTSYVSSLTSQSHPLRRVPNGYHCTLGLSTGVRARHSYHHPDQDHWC
T1 sequence (P54290 25-944 partner limits assumed): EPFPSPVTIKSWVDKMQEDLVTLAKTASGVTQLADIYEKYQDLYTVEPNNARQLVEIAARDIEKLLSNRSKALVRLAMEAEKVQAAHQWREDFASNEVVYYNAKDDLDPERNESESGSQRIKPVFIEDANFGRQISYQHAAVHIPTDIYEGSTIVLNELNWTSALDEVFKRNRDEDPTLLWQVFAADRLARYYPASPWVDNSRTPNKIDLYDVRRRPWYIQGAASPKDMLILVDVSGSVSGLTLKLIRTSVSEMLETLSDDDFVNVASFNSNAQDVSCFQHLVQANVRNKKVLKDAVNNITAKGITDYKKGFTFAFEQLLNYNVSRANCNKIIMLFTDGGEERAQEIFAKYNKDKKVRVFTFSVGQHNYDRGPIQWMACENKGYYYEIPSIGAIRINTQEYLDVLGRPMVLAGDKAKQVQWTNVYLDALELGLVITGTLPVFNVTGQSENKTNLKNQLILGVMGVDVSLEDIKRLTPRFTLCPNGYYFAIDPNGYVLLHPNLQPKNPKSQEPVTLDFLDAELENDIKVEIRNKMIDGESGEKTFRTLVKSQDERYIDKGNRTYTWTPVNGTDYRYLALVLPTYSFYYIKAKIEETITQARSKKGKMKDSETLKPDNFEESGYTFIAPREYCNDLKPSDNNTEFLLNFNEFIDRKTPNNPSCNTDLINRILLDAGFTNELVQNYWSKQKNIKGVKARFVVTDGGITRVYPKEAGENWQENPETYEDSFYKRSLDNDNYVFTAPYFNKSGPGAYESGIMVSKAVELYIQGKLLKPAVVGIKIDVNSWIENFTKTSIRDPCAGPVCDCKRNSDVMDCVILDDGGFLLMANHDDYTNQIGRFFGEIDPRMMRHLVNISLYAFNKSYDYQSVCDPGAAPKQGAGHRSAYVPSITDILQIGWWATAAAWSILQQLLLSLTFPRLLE
T1 sequence (P54290 945-1091 partner limits assumed): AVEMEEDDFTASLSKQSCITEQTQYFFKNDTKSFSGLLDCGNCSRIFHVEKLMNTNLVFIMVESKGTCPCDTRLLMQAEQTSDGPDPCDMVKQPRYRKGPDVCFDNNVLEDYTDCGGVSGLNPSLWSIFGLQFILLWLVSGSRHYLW
T1 sequence (P54283 whole entry partner): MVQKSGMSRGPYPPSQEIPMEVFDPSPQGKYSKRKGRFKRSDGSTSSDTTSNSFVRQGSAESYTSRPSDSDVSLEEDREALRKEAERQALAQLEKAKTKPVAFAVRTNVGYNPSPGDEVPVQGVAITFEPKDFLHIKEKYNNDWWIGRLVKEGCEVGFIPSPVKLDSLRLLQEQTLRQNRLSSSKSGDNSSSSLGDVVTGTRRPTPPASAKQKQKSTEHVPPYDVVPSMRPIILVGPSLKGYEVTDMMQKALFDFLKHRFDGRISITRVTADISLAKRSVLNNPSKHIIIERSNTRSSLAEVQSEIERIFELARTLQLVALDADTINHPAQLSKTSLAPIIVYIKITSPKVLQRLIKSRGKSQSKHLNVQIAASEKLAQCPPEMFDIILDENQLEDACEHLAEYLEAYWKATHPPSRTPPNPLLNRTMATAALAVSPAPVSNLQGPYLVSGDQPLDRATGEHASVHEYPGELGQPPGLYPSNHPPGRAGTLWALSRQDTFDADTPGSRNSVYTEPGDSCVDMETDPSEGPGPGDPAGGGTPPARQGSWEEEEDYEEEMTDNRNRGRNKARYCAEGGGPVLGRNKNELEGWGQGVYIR

This experiment concerns the target T1, rat α1B+α2b+β1b channels (Rattus norvegicus, UniProt Q02294).
T1 construct: expressed in transfected cells
Briefly: N-type calcium channel blocking activity, whole cell patch recordings. The conditions noted are these: N-type calcium channels expressed in human embryonic kidney cells; 5 mM barium as charge carrier. The format is cell-based. How it is done:
Antagonist activity was measured using whole cell patch recordings on human embryonic kidney cells either stably or transiently expressing rat α1B+α2b+β1b channels with 5 mM barium as a charge carrier.
For transient expression, host cells, such as human embryonic kidney cells, HEK 293 (ATCC# CRL 1573) are grown in standard DMEM medium supplemented with 2 mM glutamine and 10% fetal bovine serum. HEK 293 cells are transfected by a standard calcium-phosphate-DNA coprecipitation method using the rat α1B+β1b+α2δ N-type calcium channel subunits in a vertebrate expression vector (for example, see Current Protocols in Molecular Biology).
After an incubation period of from 24 to 72 hrs the culture medium is removed and replaced with external recording solution (see below). Whole cell patch clamp experiments are performed using an Axopatch 200B amplifier (Axon Instruments, Burlingame, Calif.) linked to an IBM compatible personal computer equipped with pCLAMP software. Borosilicate glass patch pipettes (Sutter Instrument Co., Novato, Calif.) were polished (Microforge, Narishige, Japan) to a resistance of about 4 MΩ when filled with cesium methanesulfonate internal solution (composition in MM: 109 CsCH3SO4, 4 MgCl2, 9 EGTA, 9 HEPES, pH 7.2). Cells were bathed in 5 mM Ba^++ (in mM: 5 BaCl2, 1 MgCl2, 10 HEPES, 40 tetraethylammonium chloride, 10 glucose, 87.5 CsCl pH 7.2). Current data shown were elicited by a train of 100 ms test pulses at 0.066 Hz from −100 mV and/or −80 mV to various potentials (min. −20 mV, max. +30 mV). Drugs were perfused directly into the vicinity of the cells using a microperfusion system.
Normalized dose-response curves were fit (Sigmaplot 4.0, SPSS Inc., Chicago, Ill.) by the Hill equation to determine IC50 values. Steady-state inactivation curves were plotted as the normalized test pulse amplitude following 5 s inactivating prepulses at +10 mV increments. Inactivation curves were fit (Sigmaplot 4.0) with the Boltzman equation, Ipeak (normalized)=1/(1+exp((V-Vh)z/25.6)), where V and Vh are the conditioning and half inactivation potentials, respectively, and z is the slope factor. […]
Regarding `C(=Cc1ccccc1)CN1CCN(CCCCCCC(c2ccccc2)C2CCCCC2)CC1` (stereo not drawn), the 50% inhibitory concentration (IC50) was 3.2 µM.

Turning to `O=C(C(c1ccccc1)C1CCCCC1)N1CCN(CC=Cc2ccccc2)CC1` (stereo not drawn), the IC50 was roughly 5 µM. Regarding `C(=Cc1ccccc1)CN1CCN(CC(C2CCCCC2)C2CCCCC2)CC1`, the IC50 is 10.2 µM.

Regarding `C(=Cc1ccccc1)CN1CCN(CC(c2ccccc2)C2CCCCC2)CC1` (stereo not drawn), the IC50 was 10.6 µM and ~5 µM. `O=C(C(C1CCCCC1)C1CCCCC1)N1CCN(Cc2ccccc2)CC1` [Ya=c-hex, c-hex; X^1=CHCO; X^2=CH2; Ar=φ]: the IC50 is 14.2 µM.

For the molecule `O=C(C(C1CCCCC1)C1CCCCC1)N1CCN(CC=Cc2ccccc2)CC1`, the 50% inhibitory concentration (IC50) was found to be 5.9 µM.

For the molecule `O=C(CCCCCC(c1ccccc1)C1CCCCC1)N1CCN(CC=Cc2ccccc2)CC1` (stereo not drawn), the IC50 worked out at 12.2 µM. `O=C(C(c1ccccc1)C1CCCCC1)N1CCN(Cc2ccccc2)CC1` (stereo not drawn) [Ya=φ, c-hex; X^1=CHCO; X^2=CH2; Ar=φ]: the IC50 is roughly 20 µM. Take `C(=Cc1ccccc1)CN1CCN(CCCCCC(c2ccccc2)C2CCCCC2)CC1` (stereo not drawn): the IC50 turned out to be 5.9 µM.

Broadly, the IC50 is the concentration that gives 50% inhibition.
